Results on five compounds are retold here after patent publication US4362663A, “Maytansinoid compound” (Takeda Chemical Industries, Ltd., priority 1979, dated 1982).

SMILES strings stand for the structures. ≈ marks a conversion by molar mass, not a printed value.

Data set [1] deals with Hamigera avellanea IFO 7721. Briefly: Microbiological assay, paper disk method. It counts as cell-based. To be noted: IFO7721, paper disk diam. 8 mm, 0.02 ml of a 100 μg/ml solution, pH 7.0 medium, read-out: diameter of zone of inhibition. How it is done: On the other hand, on a plate assay medium [disodium phosphate 3.5 g, monopotassium phosphate 0.5 g, yeast extract (Difco, U.S.A.) 5 g, glucose 10 g, agar 15 g, distilled water 1000 ml, pH 7.0], a microbiological assay was carried out by the paper disk method using Hamigera avellanea IFO 7721 as a test organism. On said plate medium inoculated with said organism, growth inhibition was examined using a paper disk (Toyo Roshi Corp., Japan, Thin type, diam.8 mm) imbibed with 0.02 ml of a 100 μg/ml solution of PND-1, PND-2, PND-3 or PND-4. The diameters of zones of inhibition were 28 mm for PND-1, 30 mm for PND-2, 34 mm for PND-3 and 36 mm for PND-4.

The subject of another data set is mice. As to the kind of experiment: Acute toxicity test in mice. It counts as in vivo. To be noted: intraperitoneal. The text has this: In an acute toxicity test performed in mice, PND-1, PND-2, PND-3 and PND-4 were given to animals by the intraperitoneal route.
The test system of a further data set is P388 tumor cell. As to the kind of experiment: Antitumor activity in P388 tumor-bearing mice. Type of data set: in vivo. To be noted: P388 1×10^6 cell/mouse, intraperitoneal. The text has this: The therapeutic action of PND-1, PND-2, PND-3 and PND-4 against P388 tumor cell (1×10^6 cell/mouse, intraperitoneal) was investigated.
A further data set is described as follows: Solubility. It counts as physicochemical.
Another data set deals with Klebsiella pneumoniae. As to the kind of experiment: Antimicrobial activity, paper disk method on trypticase-soy-agar. Type of data set: cell-based. To be noted: paper disk diam. 8 mm, 0.02 ml of a 300 μg/ml solution. How it is done: (§1) Using trypticase-soy-agar (Baltimore Biologicals, U.S.A.) as a test medium, the minimal inhibitory concentration of each compound against the following microorganisms was determined by the paper disk method. Thus, on plate media containing the following organisms, growth inhibition was investigated using paper disks (Toyo Roshi Corp., Japan thin-type, diam. 8 mm) imbibed with 0.02 ml of a 300 μg/ml solution of PND-1, PND-2, PND-3 or PND-4.
(§2) Escherichia coli, Proteus vulgaris, Proteus mirabilis, Pseudomonas aeruginosa, Staphylococcus aureus, Bacillus subtilis, Bacillus cereus, Klebsiella pneumoniae, Serratia marcescens, Mycobacterium avium.

The subject of another data set is Escherichia coli. Described as above. Type of data set: cell-based. The note with it: paper disk diam. 8 mm, 0.02 ml of a 300 μg/ml solution. How it is done:
as §1, §2

The test system of another data set is Bacillus cereus. The data set is described as above. Type of data set: cell-based. The note with it: paper disk diam. 8 mm, 0.02 ml of a 300 μg/ml solution. How it is done: as §1, §2
The test system of the next data set is Proteus vulgaris. The data set is described as above. Type of data set: cell-based. The note with it: paper disk diam. 8 mm, 0.02 ml of a 300 μg/ml solution. As to the method:
as §1, §2

In the next data set the test system is Proteus mirabilis. The description is as above. Type of data set: cell-based. The note with it: paper disk diam. 8 mm, 0.02 ml of a 300 μg/ml solution. How it is done: as §1, §2
The subject of the next data set is Bacillus subtilis. The description is as above. The note with it: paper disk diam. 8 mm, 0.02 ml of a 300 μg/ml solution. Type of data set: cell-based. As to the method: as §1, §2
The next data set concerns Serratia marcescens. The description is as above. It counts as cell-based. The note with it: paper disk diam. 8 mm, 0.02 ml of a 300 μg/ml solution. As to the method:
as §1, §2

The subject of a further data set is Staphylococcus aureus. The data set is described as above. It counts as cell-based. To be noted: paper disk diam. 8 mm, 0.02 ml of a 300 μg/ml solution. As to the method:
as §1, §2

The test system of the next data set is Mycobacterium avium. Described as above. It counts as cell-based. The note with it: paper disk diam. 8 mm, 0.02 ml of a 300 μg/ml solution. As to the method: as §1, §2
For the next data set, the system named is Pseudomonas aeruginosa. The description is as above. Type of data set: cell-based. To be noted: paper disk diam. 8 mm, 0.02 ml of a 300 μg/ml solution. As to the method:
as §1, §2

Data set [2] concerns Tetrahymena pyriformis W strain. Briefly: Minimal inhibitory concentration, serial broth dilution method. It counts as cell-based. The note with it: 28° C., 44 to 48 hours. How it is done:
On the other hand, Tetrahymena pyriformis W strain, as a test organism, was cultivated on an assay medium [Proteose-peptone (Difco) 20 g, yeast extract 1 g, glucose 2 g, distilled water 1000 ml, 1 M phosphate buffer (pH 7.0) 10 ml] at 28° C. for 44 to 48 hours and the minimal inhibitory concentrations of the antibiotics against said organisms were determined by the serial broth dilution method.
(Broth dilution looks for growth in wells or tubes with falling amounts of substance.)

What is called zone of inhibition is the size of the clear area around the sample on an inoculated plate. By MIC is commonly meant the smallest concentration in the dilution series that meets the test's criterion for growth inhibition. Low values mean a more susceptible organism, high ones a less susceptible organism.

Consider `CCC(=O)O[C@H]1CC(=O)Nc2cc(cc(OC)c2Cl)C/C(C)=C/C=C/[C@@H](OC)[C@@]2(O)C[C@H](OC(=O)N2)[C@@H](C)[C@@H]2O[C@@]12C` [PND-2], for which, in data set [1], the zone of inhibition at 100 µg/mL amounted to 30 mm. Besides, the LD0 with mice came out at 0.313 mg/kg. In the data set on mice, this compound had an LD100 of 2.5 mg/kg. In the data set with P388 tumor cell, the “life span of tumor-bearing mouse” value is listed as “prolong the life span of a tumor-bearing mouse”. Also, the “Solubility in chloroform, ethyl acetate, acetone, ethanol, methanol, pyridine, tetrahydrofuran, dimethylsulfoxydo” value (from here on “Solubility in chloroform, ethyl acetate”) in the data set “Solubility” was “soluble”. Besides, in “Solubility”, the “Solubility in petroleum ether, n-hexane, water” value (from here on “Solubility in petroleum ether”) was “insoluble”. Further, the growth inhibition result in the data set on Klebsiella pneumoniae, in the data set with Escherichia coli, in the data set on Bacillus cereus, in the data set on Proteus vulgaris, in the data set on Proteus mirabilis and in the data set with Bacillus subtilis was “did not exhibit activity” each time. For the same compound, the growth inhibition entry with Serratia marcescens, with Staphylococcus aureus, in the data set on Mycobacterium avium and in the data set with Pseudomonas aeruginosa was “did not exhibit activity” each time. In [2], this compound came in with an MIC of 4 µg/mL (≈ 6.59 µM).

With `COc1cc2cc(c1Cl)NC(=O)C[C@H](OC(C)=O)[C@]1(C)O[C@H]1[C@H](C)[C@@H]1C[C@@](O)(NC(=O)O1)[C@H](OC)/C=C/C=C(\C)C2` [PND-1], in [1], the zone of inhibition at 100 µg/mL is 28 mm. For the same compound, the LD0 with mice was found to be 0.313 mg/kg. The LD100 in the data set on mice is on record as 2.5 mg/kg. Besides, the “life span of tumor-bearing mouse” value with P388 tumor cell is reported as “prolong the life span of a tumor-bearing mouse”. Further, the “Solubility in chloroform, ethyl acetate” value in the data set “Solubility” is given as “soluble”. Further, in the data set “Solubility”, the “Solubility in petroleum ether” value is “insoluble”. Further, the growth inhibition entry in the data set on Klebsiella pneumoniae, with Escherichia coli, in the data set on Bacillus cereus, in the data set with Proteus vulgaris, with Proteus mirabilis and in the data set with Bacillus subtilis was “did not exhibit activity” throughout. The growth inhibition result with Serratia marcescens, in the data set with Staphylococcus aureus, in the data set on Mycobacterium avium and in the data set on Pseudomonas aeruginosa was “did not exhibit activity” in each case. Also, inhibition of growth in data set [2] (MIC) required 8 µg/mL (≈ 13.5 µM).

As for `COc1cc2cc(c1Cl)NC(=O)C[C@H](O)[C@]1(C)O[C@H]1[C@H](C)[C@@H]1C[C@@](O)(NC(=O)O1)[C@H](OC)/C=C/C=C(\C)C2` [PND-0], in the data set “Solubility”, the “Solubility in chloroform, ethyl acetate” value was “soluble” and the “Solubility in petroleum ether” value is “insoluble”.

Consider `COc1cc2cc(c1Cl)NC(=O)C[C@H](OC(=O)C(C)C)[C@]1(C)O[C@H]1[C@H](C)[C@@H]1C[C@@](O)(NC(=O)O1)[C@H](OC)/C=C/C=C(\C)C2` [PND-3], for which the zone of inhibition at 100 µg/mL in data set [1] stood at 34 mm. The compound further came in with an LD0 with mice of 0.313 mg/kg. In the data set on mice, this compound yielded an LD100 of 2.5 mg/kg. Moreover, the “life span of tumor-bearing mouse” value with P388 tumor cell is listed as “prolong the life span of a tumor-bearing mouse”. The “Solubility in chloroform, ethyl acetate” value in “Solubility” was “soluble”. In the data set “Solubility”, the “Solubility in petroleum ether” value is on record as “insoluble”. Further, the growth inhibition entry with Klebsiella pneumoniae, with Escherichia coli, in the data set with Bacillus cereus, in the data set on Proteus vulgaris, in the data set on Proteus mirabilis and with Bacillus subtilis was “did not exhibit activity” throughout. Further, the growth inhibition result with Serratia marcescens, in the data set on Staphylococcus aureus, in the data set on Mycobacterium avium and with Pseudomonas aeruginosa was “did not exhibit activity” each time. Inhibition of growth in data set [2] (MIC) required 2 µg/mL (≈ 3.22 µM).

For the compound `COc1cc2cc(c1Cl)NC(=O)C[C@H](OC(=O)CC(C)C)[C@]1(C)O[C@H]1[C@H](C)[C@@H]1C[C@@](O)(NC(=O)O1)[C@H](OC)/C=C/C=C(\C)C2` [PND-4], the zone of inhibition at 100 µg/mL in data set [1] worked out at 36 mm. Besides, the LD0 with mice came to 0.313 mg/kg. This compound also had an LD100 in the data set with mice of 2.5 mg/kg. For the same compound, the “life span of tumor-bearing mouse” value with P388 tumor cell is listed as “prolong the life span of a tumor-bearing mouse”. In addition, the “Solubility in chloroform, ethyl acetate” value in the data set “Solubility” is “soluble”. Besides, the “Solubility in petroleum ether” value in “Solubility” is given as “insoluble”. Moreover, the growth inhibition entry in the data set with Klebsiella pneumoniae, in the data set on Escherichia coli, in the data set with Bacillus cereus, in the data set with Proteus vulgaris, in the data set with Proteus mirabilis and with Bacillus subtilis was “did not exhibit activity” throughout. Further, the growth inhibition result with Serratia marcescens, in the data set with Staphylococcus aureus, in the data set with Mycobacterium avium and with Pseudomonas aeruginosa was “did not exhibit activity” each time. In data set [2], this compound had an MIC of 1 µg/mL (≈ 1.57 µM).
